Reference: patent publication US20210093607A1, “ANTITUMOR NANO-DRUG” (SICHUAN YUANNING BIOLOGICAL TECHNOLOGY CO., LTD., priority 2018, published 2021)
Structures can show the parent of a compound that is named as a salt.

Key:
SW480 cells [1] = experiment: Determination of superoxide anion in mitochondria; assay type: cell-based, human; conditions: SW480, 1 mM, incubation 4 h, laser confocal
Description: Determination of superoxide anion (O2^+) in mitochondria: SW480 cells in logarithmic growth active phase were prepared into cell suspension and added into 6-well plate (5×10^5 cells/well). […] After incubation for 4 h, the old culture medium was removed and 1 mL of fluorescent amine dye (50 μM) was added. After incubation for 2 h, cysteine was added to make the final concentration to be 200 μM. After incubation for 0.5 h, culture medium was removed and cells were washed with Krebs buffer for 3 times, then mitochondrial red dye was added to proceed mitochondrial staining for 30 min, and cells were washed with 37°C. medium for 3 times. Finally, the emission of fluorescent amine at 440-480 nm was detected by laser confocal to quantify […], and the emission of mitochondrial red dye at 590-650 nm was detected to locate mitochondria in cells.
Determination of superoxide anion (O2^+) in mitochondria: SW480 cells in logarithmic growth active phase were prepared into cell suspension and added into 6-well plate (5×10^5 cells/well). […] Finally, the emission of fluorescent amine at 440-480 nm was detected by laser confocal to quantify O2^+, and the emission of mitochondrial red dye at 590-650 nm was detected to locate mitochondria in cells.

SW480 cells [2] = experiment: Determination of mitochondrial membrane potential (JC-1); assay type: cell-based, human; conditions: SW480, 1 mM, incubation 24 h, JC-1, flow cytometry
Description: Determination of mitochondrial membrane potential: SW480 cells in logarithmic growth active phase were prepared into cell suspension and added into 6-well plate (5×10^5 cells/well). […] After incubation for 24 h, the old culture medium was removed, and the cells of each group were collected and centrifuged to obtain pure cells. 1 mL working solution of mitochondrial membrane potential detection kit (JC-1) was added to the collected cells, and then they were mixed thoroughly and incubated for 20 min. Then the mixture was centrifuged at 4°C. to remove working solution, and the cells were washed twice with JC-1 staining buffer (1×) on ice. Finally, 500 μL staining buffer was added to disperse the cells to obtain a cell suspension, and the change of mitochondrial membrane potential was detected by flow cytometry.
Determination of mitochondrial membrane potential: SW480 cells in logarithmic growth active phase were prepared into cell suspension and added into 6-well plate (5×10^5 cells/well). After incubation for 24 h, cells were treated with 1 mM hydroxyurea, 1 mM cLAVs and 1 mM nano-drug XI, respectively, and ntreated cells were set as blank control group. […] Finally, 500 μL staining buffer was added to disperse the cells to obtain a cell suspension, and the change of mitochondrial membrane potential was detected by flow cytometry.

Caspase-3 = experiment: Determination of Caspase-3 activity; assay type: cell-based, human; conditions: SW480, 1 mM, incubation 24 h, relative to blank control
Description: Determination of Caspase-3 activity: SW480 cells in logarithmic growth active phase were prepared into cell suspension and added into 6-well plate (4×10^5 cells/well). […] After incubation for 24 h, the old culture medium was removed and cells were collected and then centrifuged for 5 min (1200 rpm/min) at 4°C. The cells were washed with cold PBS twice, and the supernatant was sucked up as much as possible every time. 100 μL of cell lysate containing 1 mM phenylmethylsulfonyl fluoride (PMSF, protease inhibitor) was added to the collected cells, which were placed on ice for 30 min and vortex once every 5 min. […] 20 μL supernatant was taken for detection with Caspase-3 activity detection kit, and the absorbance value at A405 nm or A400 was measured by microplate reader. According to the absorbance ratio of material group cells to blank control group cells, the relative Caspase-3 activity degree was calculated.
Determination of Caspase-3 activity: SW480 cells in logarithmic growth active phase were prepared into cell suspension and added into 6-well plate (5×10^5 cells/well). […] 20 μL supernatant was taken for detection with Caspase-3 activity detection kit, and the absorbance value at A405 nm or A400 nm was measured by microplate reader. According to the absorbance ratio of material group cells to blank control group cells, the relative Caspase-3 activity degree was calculated.

[3] = system: Human gingival fibroblasts (HGF); assay type: cell-based; conditions: MTT, 48 h
Description: Human gingival fibroblasts (HGF) in logarithmic growth active phase were selected and inoculated in 96-well plates. […] Different concentration gradients were set for each group, and 5 parallel samples were set for each concentration Untreated cells were set as blank control group. After incubation for 48 h, the old culture medium was removed, and 100 μL fresh medium containing 10% (v/v) MTT was added to each well. After incubation for another 2 h, the culture media was removed and 150 μL dimethyl sulfoxide/well was added. After shaking for 2 min, the absorbance of the solution was measured at 490 nm by using a microplate reader Varioscan Flash and cell viability was calculated.
Untreated cells were set as blank control group. After 48 h of culture, the old culture medium was removed, and 100 μL of culture medium containing 10% (v/v) MTT was added to each well. After incubation for 2 h, 150 μL DMSO was added to each well, and the absorbance at 490 nm was measured with a microplate reader for 2 min, and the cell survival rate was calculated.

SW480 cells [4] = experiment: Determination of cytochrome C release (western blot); assay type: cell-based, human; conditions: SW480, 1 mM, incubation 24 h
Description: Determination of cytochrome C release: SW480 cells in logarithmic growth active phase were prepared into cell suspension and added into 6-well plate (5×10^5 cells/well). […] After incubation for 24 h, the old culture medium was removed and cells were collected. The collected cells were centrifuged (1200 rpm/min) for 5 min at 4°C., and the supernatant was removed. The cells were washed with cold PBS twice, and die supernatant was sucked up as much as possible every lime. 100 μL of cell lysate containing 1 mM phenylmethylsulfonyl fluoride (PMSF, protease inhibitor) was added to the collected cells, which were placed on ice for 30 min and vortex once every 5 min. Then the mixture was centrifuged at 12000 rpm at 4°C. for 60 min, and the supernatant was quickly collected in another clean centrifuge tube, 20 μL supernatant was taken to analyze the content of cytochrome C in cytoplasm by western blot.
Determination of cytochrome C release: SW480 cells in logarithmic growth active phase were prepared into cell suspension and added into 6-well plate (5×10^5 cells/well). After incubation for 24 h, cells were treated with […], 1 mM cLAVs and 1 mM nano-drug XI, respectively, and untreated cells were set as blank control group. After incubation for 24 h, the old culture medium was removed and cells were collected. […]

[5] = system: Subcutaneous SW480 xenograft model; experiment: In vivo antitumor assessment, subcutaneous SW480 xenograft; parameters: species or system BALB/c nude mice; conditions: SW480 xenograft nude mice; LA/cLAVs 10 mg/kg, Hydrea 6 mg/kg; once every 3 days, 8 times
Source text: Subcutaneous SW480 xenograft model was established in BALB/c nude mice (about 20 g each) of 4 weeks old.

SMILES | relative superoxide anion level in mitochondria (SW480 cells [1]) | mitochondrial membrane potential loss (SW480 cells [2]) | relative Caspase-3 activity (Caspase-3) | toxicity to normal cells (cell viability) [3] | cytochrome C release into cytoplasm (SW480 cells [4]) | tumor inhibition effect (tumor volume) [5]
O=C(O)CCCC[C@@H]1CCSS1 [LA, (R)-(+)-lipoic acid] | can induce mitochondria to produce O2^+ | can induce the decrease of mitochondrial membrane potential | can stimute the relative activity of Caspase-3 | – | – | –
COc1cccc2c1C(=O)c1c(O)c3c(c(O)c1C2=O)C[C@@](O)(C(=O)CO)C[C@@H]3O[C@H]1C[C@H](N)[C@H](O)[C@H](C)O1 [DOX.HCl, doxorubicin hydrochloride] | – | – | – | can kill normal cells at very low doses | – | –
NC(=O)NO [hydroxyurea] | can all induce mitochondria to produce O2^+ | can all induce the decrease of mitochondrial membrane potential | can stimulate the relative activity of Caspase-3 | – | promote the release of cytochrome C from the mitochondria to the cytoplasm | good tumor inhibition effect
Nc1ccn([C@@H]2O[C@H](CO)[C@@H](O)C2(F)F)c(=O)n1 [Gem.HCl, gemcitabine hydrochloride] | – | – | – | can kill normal cells at very low doses | – | –
